From PubChem BioAssay (NCI)
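Values below derive from 48-hour exposures of cells grown in 96-well plates, with endpoints linearly interpolated between the two concentrations bracketing the appropriate inhibition level. Definition used: TGI = concentration required for complete inhibition of growth.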 Where a SMILES comes first, the peptide text is derived from it. [ ]: non-standard residue; d: D form. Phe(4-NO2) = N[CH](Cc1ccc([N+](=O)[O-])cc1)C(=O)O

Experiments:
Experiment in all cases: growth of human tumour cells (NCI), 48 h
LOX IMVI melanoma = tested on: LOX IMVI melanoma
MOLT-4 leukemia = tested on: MOLT-4 leukemia
OVCAR-8 ovarian = tested on: OVCAR-8 ovarian
K-562 leukemia = tested on: K-562 leukemia
SF-539 CNS = tested on: SF-539 CNS
SK-OV-3 ovarian = tested on: SK-OV-3 ovarian
M14 melanoma = tested on: M14 melanoma
HL-60(TB) leukemia = tested on: HL-60(TB) leukemia
SR leukemia = tested on: SR leukemia
CCRF-CEM leukemia = tested on: CCRF-CEM leukemia
NCI-H23 lung = tested on: NCI-H23 lung
A549 NSCLC = tested on: A549 NSCLC
SNB-75 CNS = tested on: SNB-75 CNS
HCC-2998 colon = tested on: HCC-2998 colon
ACHN renal = tested on: ACHN renal
OVCAR-4 ovarian = tested on: OVCAR-4 ovarian
NCI-H460 lung = tested on: NCI-H460 lung
SK-MEL-5 melanoma = tested on: SK-MEL-5 melanoma
A498 renal = tested on: A498 renal
CAKI-1 renal = tested on: CAKI-1 renal

Row | Compound | TGI (LOX IMVI melanoma) [µM] | TGI (MOLT-4 leukemia) [µM] | TGI (OVCAR-8 ovarian) [µM] | TGI (K-562 leukemia) [µM] | TGI (SF-539 CNS) [µM] | TGI (SK-OV-3 ovarian) [µM] | TGI (M14 melanoma) [µM] | TGI (HL-60(TB) leukemia) [µM] | TGI (SR leukemia) [µM] | TGI (CCRF-CEM leukemia) [µM] | TGI (NCI-H23 lung) [µM] | TGI (A549 NSCLC) [µM] | TGI (SNB-75 CNS) [µM] | TGI (HCC-2998 colon) [µM] | TGI (ACHN renal) [µM] | TGI (OVCAR-4 ovarian) [µM] | TGI (NCI-H460 lung) [µM] | TGI (SK-MEL-5 melanoma) [µM] | TGI (A498 renal) [µM] | TGI (CAKI-1 renal) [µM]
1 | CCOC(=O)Cn1c(=O)c2nc(SC)sc2n(-c2ccccc2)c1=S | > 100 | > 100 | 95.8 | > 100 | 31.6 | 60.7 | 70.4 | 59.4 | > 100 | > 100 | > 100 | > 100 | 12.5 | > 100 | 43.4 | 35.2 | 99.4 | > 100 | – | –
2 | O=C(SC1=NCCN1)c1cccc2ccccc12 | > 100 | 43.2 | > 100 | 73.5 | > 100 | > 100 | > 100 | 67 | – | 70.1 | > 100 | > 100 | 96.8 | > 100 | > 100 | > 100 | > 100 | > 100 | > 100 | > 100
3 | CC(NC(=O)C(Cc1ccc([N+](=O)[O-])cc1)NC(=O)C(N)CCCCN)C(=O)NC(Cc1ccc([N+](=O)[O-])cc1)C(N)=O (stereo unspecified) (H-K[Phe(4-NO2)]A[Phe(4-NO2)]-NH2; configuration not given here) | > 100 | > 59.4 | > 100 | > 55.3 | > 83.9 | > 100 | > 74.3 | > 48.9 | – | > 100 | > 100 | > 97 | > 100 | > 64.8 | > 100 | > 100 | > 100 | 51.5 | > 100 | > 100
4 | CCN(CC)CCN(C(=Nc1ccccc1)N1CCCCC1)c1ccccc1 | 23.7 | 25.2 | 29.5 | 16.2 | 40 | 24.2 | 21.7 | 6.95 | 23.6 | 46.5 | 25.6 | 45.2 | – | 19.9 | – | 57.8 | 24.8 | 17.6 | – | > 100
5 | Cc1ccc(-c2n[nH]c(=O)n2NC(=O)c2ccccc2C(=O)O)cc1 | > 100 | > 100 | > 100 | > 100 | > 100 | – | > 100 | > 100 | > 100 | – | > 100 | > 100 | > 100 | > 100 | > 100 | – | > 100 | > 100 | – | > 100
6 | O=C(CC(C(=O)c1cccs1)c1ccsc1)c1ccccc1 (stereo unspecified) | > 100 | > 100 | > 100 | – | > 100 | > 100 | > 100 | – | > 100 | > 100 | 85.4 | 66.2 | > 100 | > 100 | > 100 | > 100 | > 100 | > 100 | > 100 | > 100
7 | Cc1ccc(N=NC(=Nc2ccc(Cl)cc2)c2ccc(N(CCC#N)CCC#N)cc2)cc1 | – | > 100 | > 100 | > 100 | > 100 | > 100 | > 100 | – | > 100 | > 100 | > 100 | > 100 | > 100 | 90.1 | > 100 | > 100 | > 100 | > 100 | > 100 | > 100
8 | CC1(C)C2CC(O)C1CCC2=O (stereo unspecified) | > 100 | > 100 | > 100 | > 100 | > 100 | > 100 | > 100 | > 100 | – | > 100 | > 100 | > 100 | > 100 | > 100 | > 100 | > 100 | > 100 | > 100 | > 100 | > 100
9 | C/C=C1\CC2C(=O)CCC2C2c3ccccc3OC12 (stereo unspecified) | > 100 | > 100 | > 100 | > 100 | > 100 | > 100 | > 100 | > 100 | > 100 | > 100 | > 100 | > 100 | > 100 | – | > 100 | > 100 | > 100 | > 100 | – | > 100
10 | C[Si](C)(N[Si](C)(C)OCCc1ccccc1)OCCc1ccccc1 | > 100 | – | > 100 | – | – | > 100 | > 100 | > 100 | – | > 100 | > 100 | – | > 100 | > 100 | > 100 | > 100 | > 100 | > 100 | > 100 | > 100
11 | Cc1ccc(C(c2c(O)c3ccccc3n(-c3ccccc3)c2=O)c2c(O)c3ccccc3n(-c3ccccc3)c2=O)cc1 | > 100 | > 100 | – | > 100 | > 100 | – | – | – | > 100 | > 100 | > 100 | > 100 | – | > 100 | > 100 | > 100 | – | > 100 | – | > 100
12 | O=C1C=CC2(C=C1)CCNC1=C2C(=O)c2ccccc2C1=O | > 100 | > 100 | > 100 | > 100 | > 100 | > 100 | > 100 | > 100 | – | > 100 | > 100 | > 100 | > 100 | > 100 | > 100 | > 100 | > 100 | > 100 | > 100 | –
13 | COC(=O)C(C)(C)[C@@H]1OC(=O)N(S(=O)(=O)c2c(C)cc(C)cc2C)[C@H]1C(C)C | > 100 | > 100 | > 100 | > 100 | > 100 | > 100 | > 100 | 84.5 | > 100 | > 100 | > 100 | > 100 | > 100 | > 100 | > 100 | > 100 | > 100 | > 100 | – | –
